From patent publication US11214803B2, “Modulators of YAP1 expression” (Ionis Pharmaceuticals, Inc., priority 2019, dated 2022)

Experiments:
Yap1 mRNA [1] = experiment: Inhibition of human Yap1 mRNA in epidermoid carcinoma A-431 xenograft tumors (Example 27); type: in vivo; details: A-431 xenografts in NCr-Foxn1nu mice, 6-8 hours post final dose, relative to PBS
Experimental: An epidermoid carcinoma A-431 xenograft tumor model was used to evaluate activity of modified oligonucleotides targeted to human Yap1. Five million A-431 cells in 30% matrigel were implanted subcutaneously into the flanks of female NCr-Foxn1nu mice (from Taconic) at 4-6 weeks of age. When tumors reached an average volume of 40 mm^3, approximately two weeks post-implantation, groups of four mice each were administered at either 25 mg/kg or 50 mg/kg daily with modified oligonucleotides for […] (5 doses). Tumors were collected 6-8 hours post final dose and tested for Yap1 mRNA knockdown by RT-qPCR. Yap1 mRNA levels were measured as previously described using the Human Yap1 primer-probe set RTS4814. Yap1 mRNA levels were normalized to actin-beta content, as measured by primer probe set RTS5002. Results are presented in the tables below as percent control of the amount of Yap1 mRNA relative to PBS treated animals (% control).

Yap1 mRNA [2] = experiment: Dose-dependent inhibition of human Yap1 in SNU-449 cells (Example 9, RTS36584); type: cell-based; details: free uptake; for % UTC (Yap1 mRNA): approximately 48 hours; for IC50: linear regression on a log/linear plot
In short: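 SNU-449 cells (10,000/well) took up modified oligonucleotides by free uptake at a range of doses for about 48 h. Yap1 mRNA was quantified with primer-probe set RTS36584, normalised to RIBOGREEN total RNA and expressed as % untreated control; IC50 from linear regression on log/linear plot.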

[3] = Tolerability in Sprague-Dawley rats, plasma chemistry markers (Example 22); type: in vivo; details: male Sprague-Dawley rats, 50 mg/kg s.c. weekly for 6 weeks (7 doses), 48 hours after last dose
Experimental: Sprague-Dawley rats are a multipurpose model used for safety and efficacy evaluations. The rats were treated with Ionis modified oligonucleotides from the studies described in the Examples above and evaluated for changes in the levels of various plasma chemistry markers.

[4] = Cynomolgus monkey tolerability, hematology (Example 34); type: in vivo, cynomolgus monkeys; details: for BAS / EOS / HCT / HGB / LUC / LYM / MCH / MCHC / MCV / MON / NEU / PLT / RBC / RCDW / Retic / WBC: cynomolgus monkey, in vivo, sc, 35 mg/kg; for MPV: cynomolgus monkeys, 35 mg/kg subcutaneously, day 44
In short: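 On day 44, blood from oligonucleotide-treated cynomolgus monkeys was collected into K2-EDTA. An automated analyzer measured red cell indices, reticulocytes, platelets and MPV, and total and differential white cell counts.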

[5] = Cynomolgus monkey tolerability, pro-inflammatory proteins analysis, Complement C3 and CRP (Example 34); type: in vivo; details: cynomolgus monkeys, 35 mg/kg subcutaneously; for CRP: day 44
In short: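 Inflammatory effects of oligonucleotides in cynomolgus monkeys were assessed using blood samples taken after an overnight fast. About 0.8 mL of blood per animal went into tubes without anticoagulant so serum could be separated. Complement C3 was measured on a Toshiba 120 FR NEO chemistry analyzer. C-Reactive Protein was measured alongside the liver-function clinical chemistry parameters.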

[6] = Cynomolgus monkey tolerability, kidney and liver function markers (Example 34); details: cynomolgus monkeys, 35 mg/kg subcutaneously, day 44
Yap1 mRNA [7] = experiment: Yap1 mRNA in SCC25 cells, RNA analysis (Example 25); type: cell-based, human; details: free uptake, 48 hours, RTS4814, normalized to actin-beta
Experimental: Modified oligonucleotides described in the studies above were tested at various doses in squamous cell carcinoma cell SCC25. A control oligonucleotide 792169 (a 3-10-3 cET gapmer with a full phosphorothioate backbone, […], designated herein as SEQ ID No.: 2940; is not complementary to any known human gene) was also tested.
Cultured SCC25 cells at a density of 5,000 cells per well were treated using free uptake with modified oligonucleotides diluted to concentrations described in the tables below. After approximately 48 hours, Yap1 mRNA levels were measured as previously described using the Human Yap1 primer-probe set RTS4814. Yap1 mRNA levels were normalized to actin-beta content, as measured by primer probe set RTS5002 (forward sequence […], designated herein as SEQ ID NO.: 20; reverse sequence […], designated herein as SEQ ID NO.: 21; probe sequence […], designated herein as SEQ ID NO.: 22). Results are presented in the tables below as percent control of the amount of Yap1 mRNA relative to untreated control cells (% UTC).

[8] = rat, in vivo, sc, 50 mg/kg
Experimental: Male Sprague-Dawley rats were maintained on a 12-hour light/dark cycle and fed ad libitum with Purina normal rat chow. Groups of 4 Sprague-Dawley rats each were weekly injected subcutaneously with 50 mg/kg of Ionis oligonucleotide for 6 weeks (total 7 doses). Forty-eight hours after the last dose, the rats were euthanized; and organs, urine and plasma were harvested for further analysis.
To evaluate the effect of Ionis oligonucleotides on kidney function, urinary levels of total protein and creatinine were measured using an automated clinical chemistry analyzer (Hitachi Olympus AU400c, Melville, N.Y.).

For “1198831 (CACTTTTACATTAGGA; chemically modified gapmer, further chemistry not given here) [compound 1198831]”, which “Yap1 mRNA in tumors, % control” value (Yap1 mRNA [1]; 25 mpk daily (5 doses)) is on record?
Its value is 47 % control.

What about the “Yap1 mRNA in tumors, % control” value (Yap1 mRNA [1]; 50 mpk daily (5 doses)) of the same substance?
The value was 37 % control.

And the “% UTC (Yap1 mRNA)” value (Yap1 mRNA [2]; 31.3 nM)?
The value was 74 % UTC.

What about the “% UTC (Yap1 mRNA)” value (Yap1 mRNA [2]; 125.0 nM) of the same substance?
The value was 33 % UTC.

And the “% UTC (Yap1 mRNA)” value (Yap1 mRNA [2]; 500.0 nM)?
Its value is 10 % UTC.

What about the “% UTC (Yap1 mRNA)” value (Yap1 mRNA [2]; 2000.00 nM) of the same substance?
The value was 4 % UTC.

What about the IC50 (Yap1 mRNA [2]) of the same substance?
Its IC50 is 0.1 µM.

And the ALT [3]?
Its ALT is 54 U/L.

What about the AST [3] of the same substance?
The AST was 69 U/L.

And the BUN [3]?
The BUN was 23 mg/dL.

What about the TBIL [3] of the same substance?
The TBIL was 0.20 mg/dL.

What about the BAS [4] of the same substance?
The BAS was 0.3%.

What about the EOS [4] of the same substance?
The EOS was 2.0%.

What about the HCT [4] of the same substance?
Its HCT is 43%.

And the HGB [4]?
Its HGB is 13 g/dL.

And the LUC [4]?
The LUC was 0.8%.

And the LYM [4]?
The LYM was 50%.

And the MCH [4]?
The MCH was 23 pg.

What about the MCHC [4] of the same substance?
The MCHC was 30 g/dL.

What about the MCV [4] of the same substance?
The MCV was 76 fL.

What about the MON [4] of the same substance?
Its MON is 3.3%.

And the NEU [4]?
Its NEU is 44%.

And the PLT [4]?
Its PLT is 377 10^3/μL.

And the RBC [4]?
Its RBC is 5.6e+06 µL⁻¹.

What about the RCDW [4] of the same substance?
Its RCDW is 12%.

And the Retic [4]?
Its Retic is 1.0%.

And the WBC [4]?
The WBC was 7600 µL⁻¹.

What about the MPV [4] of the same substance?
Its MPV is 7.3 fL.

What about the “Complement C3” value ([5]; Day 42 (pre-dose)) of the same substance?
Its value is 81 mg/dL.

What about the “Complement C3” value ([5]; day 42 (24 hr post-dose)) of the same substance?
Its value is 81 mg/dL.

And the CRP [5]?
The CRP was 1.1 mg/L.

And the ALB [6]?
The ALB was 3.9 g/dL.

What about the ALP [6] of the same substance?
The ALP was 1096 IU/L.

What about the ALT [6] of the same substance?
The ALT was 48 IU/L.

And the AST [6]?
Its AST is 63 IU/L.

What about the BUN [6] of the same substance?
The BUN was 26 mg/dL.

And the CREA [6]?
The CREA was 0.7 mg/dL.

What about the GGT [6] of the same substance?
The GGT was 65 IU/L.

And the GLO [6]?
Its GLO is 2.8 g/dL.

What about the GLU [6] of the same substance?
The GLU was 73 mg/dL.

And the HDL [6]?
The HDL was 108 mg/dL.

And the LDL [6]?
Its LDL is 63 mg/dL.

And the TBIL [6]?
Its TBIL is 0.3 mg/dL.

What about the TG [6] of the same substance?
Its TG is 22 mg/dL.

What about the TP [6] of the same substance?
The TP was 6.7 g/dL.

And the “Yap1 mRNA, % UTC” value (Yap1 mRNA [7]; 0.04 μM)?
The value was 63 % UTC.

What about the “Yap1 mRNA, % UTC” value (Yap1 mRNA [7]; 0.2 μM) of the same substance?
Its value is 36 % UTC.

And the “Yap1 mRNA, % UTC” value (Yap1 mRNA [7]; 1 μM)?
Its value is 16 % UTC.

And the “Yap1 mRNA, % UTC” value (Yap1 mRNA [7]; 5 μM)?
Its value is 14 % UTC.

And the “URINE P/C ratio (total protein to creatinine ratio)” value [8]?
The value was 17.

Which results are given for “1198623 (CTAAGTAAGGTTTCCC; modified gapmer, further chemistry not given here) [compound 1198623]”?
Yap1 mRNA in tumors, % control (Yap1 mRNA [1]; 25 mpk daily (5 doses)): 43 % control; Yap1 mRNA in tumors, % control (Yap1 mRNA [1]; 50 mpk daily (5 doses)): 36 % control; % UTC (Yap1 mRNA) (Yap1 mRNA [2]; 31.3 nM): 48 % UTC; % UTC (Yap1 mRNA) (Yap1 mRNA [2]; 125.0 nM): 24 % UTC; % UTC (Yap1 mRNA) (Yap1 mRNA [2]; 500.0 nM): 5 % UTC; % UTC (Yap1 mRNA) (Yap1 mRNA [2]; 2000.00 nM): 1 % UTC; IC50 (Yap1 mRNA [2]): < 0.03 µM; ALT [3]: 96 U/L; AST [3]: 87 U/L; BUN [3]: 21 mg/dL; TBIL [3]: 0.24 mg/dL; BAS [4]: 0.4%; EOS [4]: 0.8%; HCT [4]: 46%; HGB [4]: 14 g/dL; LUC [4]: 0.7%; LYM [4]: 53%; MCH [4]: 23 pg; MCHC [4]: 30 g/dL; MCV [4]: 78 fL; MON [4]: 2.0%; NEU [4]: 43%; PLT [4]: 376 10^3/μL; RBC [4]: 5.9e+06 µL⁻¹; RCDW [4]: 13%; Retic [4]: 1.0%; WBC [4]: 11700 µL⁻¹; MPV [4]: 7.8 fL; Complement C3 ([5]; Day 42 (pre-dose)): 105 mg/dL; Complement C3 ([5]; day 42 (24 hr post-dose)): 101 mg/dL; CRP [5]: 2.0 mg/L; ALB [6]: 4.2 g/dL; ALP [6]: 916 IU/L; ALT [6]: 50 IU/L; AST [6]: 47 IU/L; BUN [6]: 26 mg/dL; CREA [6]: 0.8 mg/dL; GGT [6]: 59 IU/L; GLO [6]: 3.0 g/dL; GLU [6]: 70 mg/dL; HDL [6]: 87 mg/dL; LDL [6]: 50 mg/dL; TBIL [6]: 0.2 mg/dL; TG [6]: 34 mg/dL; TP [6]: 7.2 g/dL; Yap1 mRNA, % UTC (Yap1 mRNA [7]; 0.04 μM): 61 % UTC; Yap1 mRNA, % UTC (Yap1 mRNA [7]; 0.2 μM): 31 % UTC; Yap1 mRNA, % UTC (Yap1 mRNA [7]; 1 μM): 15 % UTC; Yap1 mRNA, % UTC (Yap1 mRNA [7]; 5 μM): 10 % UTC; URINE P/C ratio (total protein to creatinine ratio) [8]: 5
